Results as given in patent publication US12077503B2, “Substituted cyclic amides and their use as herbicides” (FMC CORPORATION, priority 2015, dated 2024).

How the values were obtained:
Assay type in all cases: in vivo
[1] = tested on: velvetleaf (Abutilon theophrasti); test: Test G Post-Emergence Protocol; conditions: Abutilon theophrasti, post-emergence, 312 h, read-out: Velvetleaf damage rating; for pest or weed control at 15.625 g/ha: 15.625 g ai/ha, evaluated after 13 days (100=total damage to plant; 0=no damage to plant); for pest or weed control at 62.5 g/ha: 62.5 g ai/ha; for pest or weed control at 62.5 g/ha / pest or weed control at 250 g/ha: evaluated after 13 days, 100=total damage to plant, 0=no damage to plant; for pest or weed control at 250 g/ha: 250 g ai/ha
In short: (§1)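 Eight days post-sowing, plants received a spray of test compound (acetone/water 50:50, 0.5% Tween 20) at 15.625, 62.5 or 250 g/ha. Glasshouse regime thereafter: 24/16 °C, 14 h light, 65% humidity. Assessment after 13 days on a 0–100 damage scale.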

corn (Zea mays) [2] = test: Test G Post-Emergence Protocol; conditions: Zea mays, post-emergence, 312 h, read-out: Corn damage rating; for plant injury at 15.625 g/ha: 15.625 g ai/ha, evaluated after 13 days (100=total damage to plant; 0=no damage to plant); for plant injury at 62.5 g/ha: 62.5 g ai/ha; for plant injury at 62.5 g/ha / plant injury at 250 g/ha: evaluated after 13 days, 100=total damage to plant, 0=no damage to plant; for plant injury at 250 g/ha: 250 g ai/ha
In short: as §1

[3] = tested on: ivy-leaved morning glory (Ipomoea hederacea); test: Test G Post-Emergence Protocol; conditions: Ipomoea, post-emergence, 312 h, read-out: Morningglory, Ivy-leaved damage rating; for pest or weed control at 15.625 g/ha: 15.625 g ai/ha, evaluated after 13 days (100=total damage to plant; 0=no damage to plant); for pest or weed control at 62.5 g/ha: 62.5 g ai/ha; for pest or weed control at 62.5 g/ha / pest or weed control at 250 g/ha: evaluated after 13 days, 100=total damage to plant, 0=no damage to plant; for pest or weed control at 250 g/ha: 250 g ai/ha
In short: as §1

[4] = tested on: barnyardgrass (Echinochloa crus-galli); test: Test G Post-Emergence Protocol; conditions: Echinochloa crus-galli, post-emergence, 312 h, read-out: Barnyardgrass damage rating; for pest or weed control at 15.625 g/ha: 15.625 g ai/ha, evaluated after 13 days (100=total damage to plant; 0=no damage to plant); for pest or weed control at 62.5 g/ha: 62.5 g ai/ha; for pest or weed control at 62.5 g/ha / pest or weed control at 250 g/ha: evaluated after 13 days, 100=total damage to plant, 0=no damage to plant; for pest or weed control at 250 g/ha: 250 g ai/ha
In short: as §1

[5] = tested on: redroot pigweed (Amaranthus retroflexus); test: Test G Post-Emergence Protocol; conditions: Amaranthus retroflexus, post-emergence, 312 h, read-out: Pigweed, Redroot damage rating; for pest or weed control at 15.625 g/ha: 15.625 g ai/ha, evaluated after 13 days (100=total damage to plant; 0=no damage to plant); for pest or weed control at 62.5 g/ha: 62.5 g ai/ha; for pest or weed control at 62.5 g/ha / pest or weed control at 250 g/ha: evaluated after 13 days, 100=total damage to plant, 0=no damage to plant; for pest or weed control at 250 g/ha: 250 g ai/ha
In short: as §1

[6] = tested on: giant foxtail (Setaria faberi); test: Test G Post-Emergence Protocol; conditions: Setaria faberi, post-emergence, 312 h, read-out: Foxtail, Giant damage rating; for pest or weed control at 15.625 g/ha: 15.625 g ai/ha, evaluated after 13 days (100=total damage to plant; 0=no damage to plant); for pest or weed control at 62.5 g/ha: 62.5 g ai/ha
In short: as §1

[7] = tested on: velvetleaf (Abutilon theophrasti); test: Test G Pre-Emergence Protocol; conditions: Abutilon theophrasti, pre-emergence, 312 h, evaluated after 13 days; for pest or weed control at 15.625 g/ha: 15.625 g ai/ha; for pest or weed control at 15.625 g/ha / pest or weed control at 250 g/ha: read-out: Velvetleaf damage rating (100=total damage to plant; 0=no damage to plant); for pest or weed control at 62.5 g/ha: 62.5 g ai/ha, 100=total damage to plant, 0=no damage to plant, read-out: Velvetleaf damage rating; for pest or weed control at 250 g/ha: 250 g ai/ha
In short: (§2)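 Glasshouse pre-emergence test: soil-sown seeds, sprayed after 1 d at 15.625, 62.5 or 250 g/ha. Conditions 24/16° C day/night, 14 h light, 65% humidity, watering twice daily. Rating 13 d post-spray (100 = total damage).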

corn (Zea mays) [8] = test: Test G Pre-Emergence Protocol; conditions: Zea mays, pre-emergence, 312 h, evaluated after 13 days; for plant injury at 15.625 g/ha: 15.625 g ai/ha; for plant injury at 15.625 g/ha / plant injury at 250 g/ha: read-out: Corn damage rating (100=total damage to plant; 0=no damage to plant); for plant injury at 62.5 g/ha: 62.5 g ai/ha, 100=total damage to plant, 0=no damage to plant, read-out: Corn damage rating; for plant injury at 250 g/ha: 250 g ai/ha
In short: as §2

[9] = tested on: ivy-leaved morning glory (Ipomoea hederacea); test: Test G Pre-Emergence Protocol; conditions: Ipomoea, pre-emergence, 312 h, evaluated after 13 days; for pest or weed control at 15.625 g/ha: 15.625 g ai/ha; for pest or weed control at 15.625 g/ha / pest or weed control at 250 g/ha: read-out: Morningglory, Ivy-leaved damage rating (100=total damage to plant; 0=no damage to plant); for pest or weed control at 62.5 g/ha: 62.5 g ai/ha, 100=total damage to plant, 0=no damage to plant, read-out: Morningglory, Ivy-leaved damage rating; for pest or weed control at 250 g/ha: 250 g ai/ha
In short: as §2

[10] = tested on: barnyardgrass (Echinochloa crus-galli); test: Test G Pre-Emergence Protocol; conditions: Echinochloa crus-galli, pre-emergence, 312 h, evaluated after 13 days; for pest or weed control at 15.625 g/ha: 15.625 g ai/ha; for pest or weed control at 15.625 g/ha / pest or weed control at 250 g/ha: read-out: Barnyardgrass damage rating (100=total damage to plant; 0=no damage to plant); for pest or weed control at 62.5 g/ha: 62.5 g ai/ha, 100=total damage to plant, 0=no damage to plant, read-out: Barnyardgrass damage rating; for pest or weed control at 250 g/ha: 250 g ai/ha
In short: as §2

[11] = tested on: redroot pigweed (Amaranthus retroflexus); test: Test G Pre-Emergence Protocol; conditions: Amaranthus retroflexus, pre-emergence, 312 h, evaluated after 13 days; for pest or weed control at 15.625 g/ha: 15.625 g ai/ha; for pest or weed control at 15.625 g/ha / pest or weed control at 250 g/ha: read-out: Pigweed, Redroot damage rating (100=total damage to plant; 0=no damage to plant); for pest or weed control at 62.5 g/ha: 62.5 g ai/ha, 100=total damage to plant, 0=no damage to plant, read-out: Pigweed, Redroot damage rating; for pest or weed control at 250 g/ha: 250 g ai/ha
In short: as §2

[12] = tested on: giant foxtail (Setaria faberi); test: Test G Pre-Emergence Protocol; conditions: Setaria faberi, pre-emergence, 312 h, evaluated after 13 days; for pest or weed control at 15.625 g/ha: 15.625 g ai/ha; for pest or weed control at 15.625 g/ha / pest or weed control at 250 g/ha: read-out: Foxtail, Giant damage rating (100=total damage to plant; 0=no damage to plant); for pest or weed control at 62.5 g/ha: 62.5 g ai/ha, 100=total damage to plant, 0=no damage to plant, read-out: Foxtail, Giant damage rating; for pest or weed control at 250 g/ha: 250 g ai/ha
In short: as §2

[13] = evaluated after 13 days, 100=total damage to plant, 0=no damage to plant

| SMILES | pest or weed control at 15.625 g/ha [1] | pest or weed control at 62.5 g/ha [1] | pest or weed control at 250 g/ha [1] | plant injury at 15.625 g/ha (corn (Zea mays) [2]) | plant injury at 62.5 g/ha (corn (Zea mays) [2]) | plant injury at 250 g/ha (corn (Zea mays) [2]) | pest or weed control at 15.625 g/ha [3] | pest or weed control at 62.5 g/ha [3] | pest or weed control at 250 g/ha [3] | pest or weed control at 15.625 g/ha [4] | pest or weed control at 62.5 g/ha [4] | pest or weed control at 250 g/ha [4] | pest or weed control at 15.625 g/ha [5] | pest or weed control at 62.5 g/ha [5] | pest or weed control at 250 g/ha [5] | pest or weed control at 15.625 g/ha [6] | pest or weed control at 62.5 g/ha [6, 13] | pest or weed control at 15.625 g/ha [7] | pest or weed control at 62.5 g/ha [7] | pest or weed control at 250 g/ha [7] | also measured |
| --- | --- | --- | --- | --- | --- | --- | --- | --- | --- | --- | --- | --- | --- | --- | --- | --- | --- | --- | --- | --- | --- |
| CN1C[C@H](c2ccnc(C(C)(C)C)n2)[C@@H](C(=O)Nc2ccc(F)c(F)c2F)C1=O (racemic) [Compound 1770] | 0% | 10% | 30% | 0% | 0% | 0% | 0% | 10% | 20% | 0% | 0% | 70% | 0% | 20% | 40% | 0% | 20% | 0% | 0% | 20% | pest or weed control at 250 g/ha ([6]; 250 g ai/ha, evaluated after 13 days, 100=total damage to plant, 0=no damage to plant): 70%; plant injury at 15.625 g/ha (corn (Zea mays) [8]): 0%; plant injury at 62.5 g/ha (corn (Zea mays) [8]): 0%; plant injury at 250 g/ha (corn (Zea mays) [8]): 0%; pest or weed control at 15.625 g/ha [9]: 0%; pest or weed control at 62.5 g/ha [9]: 0%; pest or weed control at 250 g/ha [9]: 30%; pest or weed control at 15.625 g/ha [10]: 0%; pest or weed control at 62.5 g/ha [10]: 20%; pest or weed control at 250 g/ha [10]: 70%; pest or weed control at 15.625 g/ha [11]: 0%; pest or weed control at 62.5 g/ha [11]: 0%; pest or weed control at 250 g/ha [11]: 10%; pest or weed control at 15.625 g/ha [12]: 0%; pest or weed control at 62.5 g/ha [12]: 50%; pest or weed control at 250 g/ha [12]: 80% |
| CSc1ncccc1NC(=O)[C@H]1C(=O)N(C)C[C@@H]1c1ccc(C(F)(F)F)cc1 (racemic) [Compound 1786] | 0% | 0% | 30% | 0% | 0% | 0% | 0% | 0% | 0% | 0% | 0% | 0% | 0% | 0% | 20% | 0% | 10% | 0% | 0% | 30% | plant injury at 15.625 g/ha (corn (Zea mays) [8]): 0%; plant injury at 62.5 g/ha (corn (Zea mays) [8]): 0%; plant injury at 250 g/ha (corn (Zea mays) [8]): 0%; pest or weed control at 15.625 g/ha [9]: 0%; pest or weed control at 62.5 g/ha [9]: 0%; pest or weed control at 250 g/ha [9]: 0%; pest or weed control at 15.625 g/ha [10]: 0%; pest or weed control at 62.5 g/ha [10]: 0%; pest or weed control at 250 g/ha [10]: 20%; pest or weed control at 15.625 g/ha [11]: 0%; pest or weed control at 62.5 g/ha [11]: 0%; pest or weed control at 250 g/ha [11]: 40%; pest or weed control at 15.625 g/ha [12]: 0%; pest or weed control at 62.5 g/ha [12]: 0%; pest or weed control at 250 g/ha [12]: 80% |
